Results reported in ChEMBL document CHEMBL4376848, “Synthesis and discovery of triazolo-pyridazine-6-yl-substituted piperazines as effective anti-diabetic drugs; evaluated over dipeptidyl peptidase-4 inhibition mechanism and insulinotropic activities” (Eur J Med Chem, 2020).
≈ marks a conversion by molar mass, not a printed value.

Key:
[1] = Antioxidant activity assessed as inhibition of H2O2 radical scavenging activity incubated for 60 mins by UV-spectrophotometric method relative to control; format: functional
[2] = Antioxidant activity assessed as inhibition of H2O2 radical scavenging activity incubated for 60 mins by UV-spectrophotometric method; format: functional
INS1(832/13) [3] = assay: Cytotoxicity against rat INS1(832/13) cells assessed as cell viability at 3.5 nM in RPMI medium incubated for over night followed by insulin addition by Alamar Blue assay; format: cell-based; conditions: 0.0035 µM
INS1(832/13) [4] = assay: Cytotoxicity against rat INS1(832/13) cells assessed as cell viability upto 3 nM in RPMI medium incubated for over night followed by insulin addition by Alamar Blue assay; format: cell-based
INS1(832/13) [5] = assay: cells; conditions: Rattus norvegicus, INS-1 832/13, 2 h
Description: Antidiabetic activity in glucose-treated rat INS1(832/13) cells assessed as increase in insulin release in presence of 3 mM glucose measured after 2 hrs by radioimmunoassay

INS1(832/13) [6] = assay: Antidiabetic activity in glucose-treated rat INS1(832/13) cells assessed as increase in insulin release at 1 ug/ml in presence of 3 mM glucose measured after 2 hrs by radioimmunoassay (reference value: 52.25 +/- 2.15 %); format: functional
INS1(832/13) [7] = assay: Antidiabetic activity in glucose-treated rat INS1(832/13) cells assessed as increase in insulin release at 10 ug/ml in presence of 3 mM glucose measured after 2 hrs by radioimmunoassay (reference value: 52.25 +/- 2.15 %); format: functional

Row | IC50 [2] [µg/mL] | Structure (SMILES) | inhibition [1] [%] | Activity (INS1(832/13) [3]) | Activity (INS1(832/13) [4]) | IC50 (INS1(832/13) [5]) [nM] | inhibition (INH) (INS1(832/13) [6]) [%] | inhibition (INH) (INS1(832/13) [7]) [%]
1 | 16.8 (≈ 43.9 µM) | Cc1cccc(-c2nnc3ccc(N4CCN(CCOCCO)CC4)nn23)c1 | 83.2 | – | – | – | – | –
2 | 25.4 (≈ 75.3 µM) | Cc1cccc(-c2nnc3ccc(N4CCN(CCN)CC4)nn23)c1 | 78.2 | – | – | – | – | –
3 | 25.3 (≈ 144 µM) | O=C1O[C@H]([C@@H](O)CO)C(O)=C1O [ASCORBIC ACID] | – | – | – | – | – | –
4 | 13.4 (≈ 34.9 µM) | Cc1cccc(-c2nnc3ccc(N4CCN(Cc5ccccc5)CC4)nn23)c1 | 86.2 | – | – | – | – | –

The next lines start with the compound.

Row | Structure (SMILES) | IC50 [2] [µg/mL] | inhibition [1] [%] | Activity (INS1(832/13) [3]) | Activity (INS1(832/13) [4]) | IC50 (INS1(832/13) [5]) [nM] | inhibition (INH) (INS1(832/13) [6]) [%] | inhibition (INH) (INS1(832/13) [7]) [%]
5 | COc1ccc(N2CCN(c3ccc4nnc(-c5cccc(C)c5)n4n3)CC2)cc1 | 45.9 (≈ 115 µM) | 75.6 | – | – | – | – | –
6 | Cc1cccc(-c2nnc3ccc(N4CCN(Cc5ccccc5)C(C(=O)O)C4)nn23)c1 (stereo unspecified) | 85.5 (≈ 200 µM) | 69.4 | – | – | – | – | –
7 | CCOC(=O)N1CCN(c2ccc3nnc(-c4cccc(C)c4)n3n2)CC1 | 1 (≈ 2.73 µM) | 96.8 | Toxic | Non-Toxic | 2.8 | – | –
8 | Cc1cccc(-c2nnc3ccc(N4CCN(C(c5ccccc5)c5ccccc5)CC4)nn23)c1 | 1.75 (≈ 3.8 µM) | 93.2 | – | – | 4.8 | – | –
9 | Cc1cccc(-c2nnc3ccc(N4CCN(C(=O)OC(C)(C)C)C(Cc5ccccc5)C4)nn23)c1 (stereo unspecified) | 15.8 (≈ 32.6 µM) | 80.1 | – | – | – | – | –
10 | CCOc1cc(CC(=O)N[C@@H](CC(C)C)c2ccccc2N2CCCCC2)ccc1C(=O)O [REPAGLINIDE] | – | – | – | – | 1250 | 96.16 | 99.05
11 | CC(=O)N1CCN(c2ccc3nnc(-c4cccc(C)c4)n3n2)CC1 | 28.6 (≈ 85 µM) | 78.2 | – | – | – | – | –
12 | Cc1cccc(-c2nnc3ccc(N4CCN(C(=O)c5ccccc5)CC4)nn23)c1 | 2.25 (≈ 5.65 µM) | 94.1 | Toxic | Non-Toxic | 1.5 | – | –
13 | Cc1cccc(-c2nnc3ccc(N4CCN(S(C)(=O)=O)CC4)nn23)c1 | 10.8 (≈ 29 µM) | 84.2 | – | – | – | – | –
14 | Cc1cccc(-c2nnc3ccc(N4CCN(Cc5ccc(F)cc5)CC4)nn23)c1 | 2 (≈ 4.97 µM) | 91.2 | – | – | 3.9 | – | –
